Measured values: US20220356170A1, “SREBP INHIBITOR COMPRISING A THIOPHENE CENTRAL RING” (Capulus Therapeutics, LLC, priority 2019, published 2022)

Columns and labels:
PANC1005 = assay: Cancer cell growth inhibition, Sulforhodamine B; type: cell-based; details: Homo sapiens, Panc1005, 72 h, PANC1005 (pancreas)
Summary of the method: (§1)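 SRB protein-stain readout after 72 hr compound exposure; 0.1% DMSO final; six-point 10-fold series (stocks 10 mM–0.1 uM in DMSO), n=1 per point. Endpoints: IC50, GI50, IC10, TGI, LC50, IC90, GI90 where calculable.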

MDAMB435 = assay: Cancer cell growth inhibition, Sulforhodamine B; type: cell-based; details: Homo sapiens, MDA-MB-435; MDAMB435 (skin), 72 hr; Responder Cell Lines
Summary of the method: as §1

HL-60 = assay: Cancer cell growth inhibition, Sulforhodamine B; type: cell-based; details: Homo sapiens; HL-60 (hematological), 72 hr; Responder Cell Lines
Summary of the method: as §1

MCF7 = assay: Cancer cell growth inhibition, Sulforhodamine B; type: cell-based; details: Homo sapiens; MCF7 (breast), 72 hr; Responder Cell Lines
Summary of the method: as §1

SU-DHL-10 = assay: Cancer cell growth inhibition, Sulforhodamine B; type: cell-based; details: Homo sapiens, SU-DHL10; SU-DHL-10 (hematological), 72 hr; Non-Responder Cell Lines with IC50 >10 uM or Not Determined
Summary of the method: as §1

PLCPRF5 = assay: Cancer cell growth inhibition, Sulforhodamine B; type: cell-based; details: Homo sapiens, PLC-PRF-5, 72 h, PLCPRF5 (liver)
Summary of the method: as §1

SW620 = assay: Cancer cell growth inhibition, Sulforhodamine B; type: cell-based; details: Homo sapiens, SW-620; SW620 (colon), 72 hr; Non-Responder Cell Lines with IC50 >10 uM or Not Determined
Summary of the method: as §1

TE671 = assay: Cancer cell growth inhibition, Sulforhodamine B; type: cell-based; details: Homo sapiens, TE-671, 72 h, TE671 (muscle)
Summary of the method: as §1

SKNSH = assay: Cancer cell growth inhibition, Sulforhodamine B; type: cell-based; details: Homo sapiens, SK-N-SH, 72 h, SKNSH (brain)
Summary of the method: as §1

CALU6 = assay: Cancer cell growth inhibition, Sulforhodamine B; type: cell-based; details: Homo sapiens, Calu-6; CALU6 (lung), 72 hr; Non-Responder Cell Lines with IC50 >10 uM or Not Determined
Summary of the method: as §1

HCT116 = assay: Cancer cell growth inhibition, Sulforhodamine B; type: cell-based; details: Homo sapiens, HCT-116; HCT116 (colon), 72 hr; Responder Cell Lines
Summary of the method: as §1

MIAPACA2 = assay: Cancer cell growth inhibition, Sulforhodamine B; type: cell-based; details: Homo sapiens, MIA PaCa-2; MIAPACA2 (pancreas), 72 hr; Non-Responder Cell Lines with IC50 >10 uM or Not Determined
Summary of the method: as §1

BT20 = assay: Cancer cell growth inhibition, Sulforhodamine B; type: cell-based; details: Homo sapiens, BT-20; BT20 (breast), 72 hr; Non-Responder Cell Lines with IC50 >10 uM or Not Determined
Summary of the method: as §1

T24 = assay: Cancer cell growth inhibition, Sulforhodamine B; type: cell-based; details: Homo sapiens, T-24; T24 (bladder), 72 hr; Non-Responder Cell Lines with IC50 >10 uM or Not Determined
Summary of the method: as §1

SF295 = assay: Cancer cell growth inhibition, Sulforhodamine B; type: cell-based; details: Homo sapiens, SF-295, 72 h, SF295 (brain)
Summary of the method: as §1

[1] = Half-life in rat liver microsomes; type: in vitro ADME; details: read-out: Rat LM: Half life
Method: Half-life Human Microsomes: Compound 1 was evaluated for stability in human liver microsomes. A 10 mM stock solution of Compound 1 was prepared in DMSO and diluted with water: acetonitrile (1:1) to a concentration of 1 mM. A working concentration of 100 μM was prepared by further dilution with water: acetonitrile (1:1). To make the preincubation mixture, 2.5 μL of the diluted Compound 1 was combined with 75 μL of human liver microsomes at 3.33 mg/mL, and 85 μL of 100 mM potassium phosphate buffer, and this mixture pre-incubated for 10 min at 37° C. To make the 60 minute mixture without cofactor, 32.5 μL of the preincubation mixture was combined with 17.5 μL of 100 mM potassium phosphate buffer and incubated for 60 min at 37° C. […] To prepare the sample mixture to be evaluated, 25 μL incubation mixture was combined with 200 μL of acetonitrile containing internal standard and vortexed for 5 min at 1200 rpm, then centrifuged for 10 min at 4000 rpm. […] The sample mixture was evaluated by LC-MS/MS using 10 mM ammonium acetate with 0.1% FA as the aqueous mobile phase, and methanol as the organic mobile phase.
Half-life Rat and Mouse Microsomes: Compound 1 was evaluated in rat and mouse liver microsomes following a similar procedure as described above for human liver microsomes.

[2] = Half-life in human liver microsomes; type: in vitro ADME; details: NADPH, 37° C., read-out: Human LM: Half life
Method: Half-life Human Microsomes: Compound 1 was evaluated for stability in human liver microsomes. A 10 mM stock solution of Compound 1 was prepared in DMSO and diluted with water: acetonitrile (1:1) to a concentration of 1 mM. A working concentration of 100 μM was prepared by further dilution with water: acetonitrile (1:1). To make the preincubation mixture, 2.5 μL of the diluted Compound 1 was combined with 75 μL of human liver microsomes at 3.33 mg/mL, and 85 μL of 100 mM potassium phosphate buffer, and this mixture pre-incubated for 10 min at 37° C. To make the 60 minute mixture without cofactor, 32.5 μL of the preincubation mixture was combined with 17.5 μL of 100 mM potassium phosphate buffer and incubated for 60 min at 37° C. To make the 0 min sample with cofactor (NADPH), 16.25 μL of the preincubation mixture was combined with 200 μL of acetonitrile containing internal standard and 8.75 μL of cofactor (NADPH). […] To prepare the sample mixture to be evaluated, 25 μL incubation mixture was combined with 200 μL of acetonitrile containing internal standard and vortexed for 5 min at 1200 rpm, then centrifuged for 10 min at 4000 rpm. […] The sample mixture was evaluated by LC-MS/MS using 10 mM ammonium acetate with 0.1% FA as the aqueous mobile phase, and methanol as the organic mobile phase.

[3] = Non-Responder Cell Lines with IC50 >10 uM or Not Determined

- IC50 (PANC1005; [3]): > 10 µM
- IC50 (PANC1005; Responder Cell Lines): < 10 µM
- IC50 (MDAMB435): < 10 µM
- IC50 (HL-60): < 10 µM
- IC50 (MCF7): < 10 µM
- IC50 (SU-DHL-10): > 10 µM
- IC50 (PLCPRF5; [3]): > 10 µM
- IC50 (PLCPRF5; Responder Cell Lines): < 10 µM
- IC50 (SW620): > 10 µM
- IC50 (TE671; [3]): > 10 µM
- IC50 (TE671; Responder Cell Lines): < 10 µM
- IC50 (SKNSH; [3]): > 10 µM
- IC50 (SKNSH; Responder Cell Lines): < 10 µM
- IC50 (CALU6): > 10 µM
- IC50 (HCT116): < 10 µM
- IC50 (MIAPACA2): > 10 µM
- IC50 (BT20): > 10 µM
- IC50 (T24): > 10 µM
- IC50 (SF295; [3]): > 10 µM
- IC50 (SF295; Responder Cell Lines): < 10 µM
- half-life at 1 µM [1]: 101 min
- half-life at 1 µM [2]: 64.7 min
SMILES: CC(C)(O)c1cc(-c2csc(-c3ccc(C(=O)N4CCC(O)CC4)cc3Cl)c2)ccn1 [Compound 1, (3-chloro-4-(4-(2-(2-hydroxypropan-2-yl)pyridin-4-yl)thiophen-2-yl)phenyl)(4-hydroxypiperidin-1-yl)methanone]
